{
  "source": "patent US9187544B2",
  "about": "“Peptide modulators of angiogenesis and use thereof” (The Johns Hopkins University, priority 2007, dated 2015)",
  "test_system": "NCI H82 lung carcinoma cell line tumor xenografts",
  "experiment": "In vivo tumor xenograft model",
  "settings": "female nude mice, 12 days, monotherapy",
  "description": "To characterize the functional effects of anti-angiogenic peptides in mouse models, tumor xenografts were generated in female nude mice using the NCI H82 lung carcinoma cell line. This cell line was chosen because its aggressiveness results in rapid tumor growth. Three peptides, a collagen derived, a CXC chemokine derived and a TSP1 containing protein derived peptide were administered once a day, intraperitoneally (i.p.), at doses 10 and 20 mg/kg/day, in a 200 microliter solution injection as individual agents and as a combination. The CXC protein GRO-α/CXCL1 derived peptide (human sequence: […] (SEQ ID NO: 2445); mouse sequence: […] (SEQ ID NO: 2441)), the TSP1 repeat-containing protein WISP-1 derived peptide (human sequence: GPWEPCSVTCSKGTRTRRR (SEQ ID NO: 2444); mouse sequence: GPWGPCSVTCSKGTQIRQR (SEQ ID NO: 2440)), and the type IV collagen alpha5 fibril derived peptide (human sequence: […] (SEQ ID NO: 2442) is the same as mouse sequence: […] (SEQ ID NO: 2443)). An equivalent volume of PBS was injected as control. The injections were repeated for 12 days.\nA population of 10^6 cells were washed twice in PBS and gently resuspended to generate a single cell suspension. The cells were mixed with Matrigel (BD Biosciences) in a final 60% cell solution. Subsequently, the cells were injected into the flank area of immunosuppressed nude mice in a total volume of 100 μl. Following growth incubation of 5 to 6 days, the tumor size volume was calculated by measurements of tumor dimensions with calipers. Tumor growth was monitored to an initial average size of 100 mm^3, which developed within 6 days after inoculation. Peptides were administered once a day, intraperitoneally (i.p.), in doses of 10 mg/kg and 20 mg/kg. In the case of testing a combination each peptide was injected in a two day cycle of a different peptide per day. Equivalent volume of PBS solution was injected as control. The injections were continued for up to […]. A total of six animals per group were used for the experiments per peptide per concentration.",
  "data": [
    {"sequence": "GPWEPCSVTCSKGTRTRRR", "values": [
      {"measurement": "development of tumors (tumor volume)", "setting": "10 mg/kg/day i.p. once a day", "value": "suppressed the development of tumors"},
      {"measurement": "development of tumors (tumor volume)", "setting": "20 mg/kg/day i.p. once a day", "value": "suppressed the development of tumors"}
    ]},
    {"sequence": "LRRFSTMPFMFCNINNVCNF", "values": [
      {"measurement": "development of tumors (tumor volume)", "setting": "10 mg/kg/day i.p. once a day", "value": "suppressed the development of tumors"},
      {"measurement": "development of tumors (tumor volume)", "setting": "20 mg/kg/day i.p. once a day", "value": "suppressed the development of tumors"}
    ]},
    {"sequence": "NGRKACLNPASPIVKKIIEKMLNS [CXC protein GRO-α/CXCL1 derived peptide]", "values": [
      {"measurement": "development of tumors (tumor volume)", "setting": "10 mg/kg/day i.p. once a day", "value": "suppressed the development of tumors"},
      {"measurement": "development of tumors (tumor volume)", "setting": "20 mg/kg/day i.p. once a day", "value": "suppressed the development of tumors"}
    ]}
  ]
}
